Changes are numbered by the printed parent chain. Names and notes keep the numbering of the source. Values joined by “and” are separate entries in the source; they are usually repeats but may differ in a detail not shown here. Equal values may be shown once.
Columns and labels:
procaspase-6 = biological target: T1, procaspase-6 (Homo sapiens, UniProt P55212); type: binding
T1 sequence (P55212 1-293): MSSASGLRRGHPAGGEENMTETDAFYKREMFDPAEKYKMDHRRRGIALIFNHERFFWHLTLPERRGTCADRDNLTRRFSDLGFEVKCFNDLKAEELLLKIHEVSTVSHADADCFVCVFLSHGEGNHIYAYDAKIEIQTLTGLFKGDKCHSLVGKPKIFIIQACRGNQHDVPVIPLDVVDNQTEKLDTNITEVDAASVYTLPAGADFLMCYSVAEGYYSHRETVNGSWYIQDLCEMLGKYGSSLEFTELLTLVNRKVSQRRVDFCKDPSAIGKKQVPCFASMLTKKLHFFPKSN

[1] = biological target: T2, procaspase-6, Caspase-6 FL N-terminally (His)6 (Homo sapiens, UniProt P55212); assay: biochemical
T2 sequence (P55212 1-293): T1 sequence (P55212 1-293)

caspase-6 ΔN D179CT = biological target: T3, caspase-6 ΔN D179CT (Homo sapiens, UniProt P55212); assay: Effect of ATP on the activity of cleaved, active caspase-6; type: biochemical; conditions: increasing ATP concentrations (0-40 mM), 1.5 h, 37 °C, 60 μM VEID-AMC
T3 sequence (P55212 24-179): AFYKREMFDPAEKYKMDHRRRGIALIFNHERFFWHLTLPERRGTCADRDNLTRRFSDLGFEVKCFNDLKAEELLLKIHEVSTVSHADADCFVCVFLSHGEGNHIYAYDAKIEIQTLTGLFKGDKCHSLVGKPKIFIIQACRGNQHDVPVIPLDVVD
T3 sequence (P55212 194-293): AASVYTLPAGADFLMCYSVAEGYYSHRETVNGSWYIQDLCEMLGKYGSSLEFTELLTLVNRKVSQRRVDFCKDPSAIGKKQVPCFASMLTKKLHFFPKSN

[2] = biological target: procaspase-6 (inactive C163S zymogen); conditions: SPR; cited from earlier work
procaspase-6 Y198A/C163S = biological target: T4, procaspase-6 Y198A/C163S (Homo sapiens, UniProt P55212, C163S/Y198A); assay: ATPAc labeling of K133, Y198A/C163S variant expressed in E. coli; type: binding; conditions: full-length procaspase-6; relative to C163S = 100%
T4 sequence (P55212 1-293 C163S/Y198A): T1 sequence (P55212 1-293) with C163S, Y198A

procaspase-6 Y198A = biological target: T5, procaspase-6 Y198A (Homo sapiens, UniProt P55212, Y198A); assay: ATPAc labeling of K133, Y198A variant expressed in E. coli; type: binding; conditions: zymogen processed to mature Y198A caspase-6; relative to C163S = 100%
T5 sequence (P55212 24-179): T3 sequence (P55212 24-179)
T5 sequence (P55212 194-293 Y198A): T3 sequence (P55212 194-293) with Y5A

procaspase-6 C163S = biological target: T6, procaspase-6 C163S (Homo sapiens, UniProt P55212, C163S); assay: ATPAc labeling of K133, C163S variant expressed in E. coli; type: binding; conditions: full-length zymogen; defined as 100%
T6 sequence (P55212 1-293 C163S): T1 sequence (P55212 1-293) with C163S

caspase-6 = biological target: T7, caspase-6 (Homo sapiens, UniProt P55212); assay: Caspase activity assay, kinetic parameters with VEID-AMC substrate; type: biochemical; conditions: 100 nM enzyme, VEID-AMC 0-500 μM, 37 °C
T7 sequence (P55212 24-179): T3 sequence (P55212 24-179)
T7 sequence (P55212 194-293): T3 sequence (P55212 194-293)

Nc1ncnc2c1ncn2[C@@H]1O[C@H](COP(=O)(O)OP(=O)(O)OP(=O)(O)O)[C@@H](O)[C@H]1O [ATP, adenosine triphosphate]
IC50 (procaspase-6): 1000 to 3000 µM | Ki (procaspase-6): ~2000 µM | IC50 [1]: 19000 ± 800 µM | activity of mature caspase-6 (caspase-6 ΔN D179CT): not affected

Nc1nc2c(ncn2[C@@H]2O[C@H](COP(=O)(O)OP(=O)(O)OP(=O)(O)O)[C@@H](O)[C@H]2O)c(=O)[nH]1 [GTP, guanosine triphosphate]
inhibition of K133 acylation by acyl phosphate probes (procaspase-6; resting Jurkat lysates pretreated 15 min with nucleotide (5 mM)): inhibited

Nc1cc2ccccc2c(O)n1 [compound 3, 3-aminoisoquinolin-1-ol]
Kd [2]: 1.8 µM and ~1.8 µM | IC50 (procaspase-6): > 1000 µM

Nc1ncnc2c1ncn2[C@H]1C[C@H](O)[C@@H](COP(=O)(O)OP(=O)(O)OP(=O)(O)O)O1 [dATP]
inhibition of probe acylation (immunoblot) (procaspase-6; immunoblot experiment, at ≤100 mM): no significant inhibition

desthiobiotin acyl phosphate of ATP [ATPAc]
acylation of K133 (procaspase-6 Y198A/C163S): 1.7% | acylation of K133 (procaspase-6 Y198A): 1.9% | acylation of K133 (procaspase-6 C163S): 100%

B1: Y198A: mature active caspase-6 Y198A variant, recombinant, expressed in E. coli (protein, UniProt P55212 1-293, looked up, variant Y198A)
chain: T1 sequence (P55212 1-293) with Y198A
kcat (caspase-6): 2.84 ± 0.04 s⁻¹
